# Experimental data published in patent US8703812B2, “Protein synthesis required for long-term memory is induced by PKC activation on days preceding associative learning” (Blanchette Rockefeller Neurosciences Institute, priority 2005, dated 2014).
# Entries after “also recorded” stand apart in the source; their conditions may differ.
# Key:
# [1] = test system: sAPP secretion; details: human fibroblasts; cited from earlier work
# [2] = in vivo; cited from earlier work
# [3] = test system: PKC; experiment: Protein kinase C assay in cultured hippocampal neurons; format: cell-based, Rat
# Procedure: (§1) Cells were homogenized by sonication (5 sec, 25 W) in 100 μl of 10 mM Tris-HCl pH 7.4 buffer containing 1 mM EGTA, 1 mM PMSF, and 50 mM NaF. Homogenate was transferred to a polyallomer centrifuge tube and was centrifuged at 100,000×g for 10 min at 4°. The supernatant was removed and immediately frozen on dry ice. The particulate fraction was resuspended by sonication in 100 μl of the same buffer and stored at −80°. To measure PKC, 10 μl of cytosol or particulate fraction was incubated for 15 min at 37° in the presence of 10 μM histones, 4.89 mM CaCl2, 1.2 μg/μl phosphatidyl-L-serine, 0.18 μg/μl 1,2-dioctanoyl-sn-glycerol, 10 mM MgCl2, 20 mM HEPES (pH 7.4), 0-8 mM EDTA, 4 mM EGTA, 4% glycerol, 8 μg/ml aprotinin, 8 μg/ml leupeptin, and 2 mM benzamidine. 0.5 μCi [γ^32P]ATP was added and ^32P-phosphoprotein formation was measured by adsorption onto phosphocellulose as described previously (25). This assay was used with slight adjustments for either Hermissenda nervous system homogenates or cultured mammalian neuron homogenates
# (§2) Rat hippocampal H19-7/IGF-IR cells (ATCC) were plated onto poly-L-lysine coated plates and grown at 35° in DMEM/10% FCS for several days until approx. 50% coverage was obtained. The cells were then induced to differentiate into a neuronal phenotype by replacing the medium with 5 ml N2 medium containing 10 ng/ml basic fibroblast growth factor and grown in T-25 flasks at 39° C. (26). Various concentrations of bryostatin (0.01-1.0 nM) were then added in 10 μl aqueous solution. After a specified interval, the medium was removed and the cells were washed with PBS, removed by gentle scraping, and collected by centrifugation at 1000 rpm for 5 min.
# To further examine biochemical consequences of repeated exposures to bryostatin, rat hippocampal neurons were studied after they had been immortalized by retroviral transduction of temperature sensitive tsA5CSV40 large T antigen (25). These differentiate to have a neuronal phenotype when induced by basic fibroblast growth factor in N2 medium (26) and express a normal complement of neuronal proteins, including PKC.
# [4] = test system: Rat hippocampal H19-7/IGF-IR cells; experiment: Protein synthesis by [35S]Methionine incorporation; format: cell-based; details: single 30-minute exposure to 0.28 nM bryostatin
# Procedure: FIG. 17 depicts the effects of bryostatin on protein synthesis. Rat IGF-IR cells were incubated for 30 minutes with 0.28 nM bryostatin for incubation times ranging from 1 to 79 hours. [^35S]Methionine (9.1 μCi) was then added to the medium followed by analysis of radiolabel.
# as §2
# In fact, we found here that a single 30-minute exposure to 0.28 nM bryostatin increased overall protein synthesis (FIG. 17), measured by incorporation of ^35-S Methionine in the last ½ hour before collecting the neurons, by 20% within 24 h, increasing to 60% by 79 hours after the bryostatin exposure.
# [5] = test system: PKC; experiment: Protein kinase C assay (histone phosphorylation) in Hermissenda nervous systems; format: in vivo
# Procedure: Bryostatin exposure—Specimens of Hermissenda Crassicornis were maintained in artificial sea water (ASW) at 15° for three days in perforated 50-ml conical centrifuge tubes before starting experiments. Bryostatin, purified from the marine bryozoan Bugula neritina, was dissolved in EtOH and diluted to its final concentration in ASW. Animals were incubated with bryostatin in ASW for 4 hr, then rinsed with normal ASW. For selected experiments lactacysteine (10 μM) or anisomycin was added to the ASW.
# as §1
# Intact Hermissenda were exposed for 4 hour intervals to bryostatin (0.28 nM) on successive days under conditions described (“Behavioral Pharmacology”). Histone phosphorylation (See “Methods”) in isolated circumesophageal nervous systems was then measured in the cytosol fraction. […] (FIG. 12, 13). […] After an initial activation (via translocation), this bryostatin effect is most likely due to increased synthesis of PKC, consistent with the increased levels of calexcitin induced by bryostatin, but not directly correlated with repeated bryostatin exposure.
# [6] = test system: calexcitin; experiment: Calexcitin immunostaining in B-photoreceptors; format: in vivo, Hermissenda
# Procedure: Following experimental treatments and testing, animals were rapidly decapitated, the central nervous systems (CNS) removed and then fixed in 4% para-formaldehyde in 20 mM Tris-buffered (pH 8) natural seawater (NSW; 0.2 μm micropore-filtered). The CNSs were then embedded in polyester wax (20), sectioned (6 μm) and immunostained using a biotinylated secondary antibody coupled to avidin-bound microperoxidase (ABC method, Vector), Aminoethylcarbazole (AEC) was used as the chromogen. The primary polyclonal antibody (designated 25U2) was raised in rabbits from the full length calexcitin protein extracted from squid optic lobes. Gray-scale intensity measures were done from digital photomicrographs on circumscribed cytoplasmic areas of the B-photoreceptors minus the same background area (non-staining neuropile).
# [7] = cited from earlier work
# [8] = test system: PKC; details: cited from earlier work
# [9] = single bryostatin 0.28 nM for 30 minutes
compound,measurement,setting,value
"CCC/C=C/C=C/C(=O)O[C@H]1/C(=C/C(=O)OC)C[C@H]2C[C@H]([C@@H](C)O)OC(=O)C[C@H](O)C[C@@H]3C[C@H](OC(C)=O)C(C)(C)[C@](O)(C[C@@H]4C/C(=C/C(=O)OC)C[C@H](/C=C/C(C)(C)[C@]1(O)O2)O4)O3 [bryostatin, bryostatin-1]",alpha-secretase cleavage of APP to sAPP,[1],activate the alpha-secretase
same,rat spatial maze learning,[2],enhanced
same,cytosolic PKC activity,[3]; first 4 hours after single bryostatin exposure,no significant alteration; also recorded: not altered
same,effect of second exposure on downregulation of membrane-bound PKC,[3]; second 30-minute exposure after 2- to 4-hour delay,eliminated the significant downregulation; also recorded: significantly attenuates the downregulation
same,cytosolic PKC activity,[3]; second bryostatin exposure delayed until 4 hours after the first,increased above baseline
same,cytosolic PKC activity,[3]; second bryostatin exposure within 2 hr of the first,significant reduction of PKC activity
same,membrane-bound PKC after brief translocation,[3]; [9],prolonged downregulation
same,translocation of PKC from cytosol to particulate fraction,[3]; [9],approx 60%
same,increase of overall protein synthesis,[4]; by 79 hours,60%
same,increase of overall protein synthesis,[4]; within 24 h,20%
same,"PKC activity, membrane fraction",[5]; 24 hours after the second of two bryostatin exposures,significantly increased over baseline
same,"PKC activity, cytosol fraction","[5]; bryostatin 0.28 nM 4 hour on successive days, 10 minutes and 24 hours after second of two exposures",significantly increased over baseline levels
same,CE immunostaining,"[6]; 24 hours after 1 bryostatin exposure for four hours, no conditioning",not elevated
same,CE immunostaining,"[6]; 24 hours after 2 bryostatin exposures on two successive days, no conditioning",greater residual CE immunostaining
same,levels of calexcitin in B-photoreceptors,"[6]; bryostatin alone 4-hr over each of 1, 2, and 3 days, measured 24 hours after each",progressively increased the levels of calexcitin
same,CE immunostaining,[6]; bryostatin plus 6 TE,comparable to that observed after 9 TE
same,calexcitin levels increase,[6]; paired training (6PTE) with bryostatin 0.25,greater than 4.3 ×
same,rise in calexcitin (CE) immuno-intensity,[6]; random training (4RTE) with bryostatin 0.25,2.0
same,CE immunostaining,"[6]; three 4 hour bryostatin exposures, 2 TE on subsequent day, 24 hours later",approached the levels previously observed immediately following 9 TE
same,calexcitin level,"[6]; two 4-hr bryostatin exposures (0.25 ng/ml) on successive days, then 2-paired TEs",significantly increased calexcitin to levels associated with 9-paired TEs; also recorded: raise calexcitin levels to the amount associated with consolidated long-term memory
same,tolerability,[7]; 20 μg/m^2 once per week for 3 weeks,well tolerated and were not associated with myalgia or other side effects
same,maximum-tolerated dose,[7]; 1 hour i.v. infusion once every 2 weeks for 6 weeks,50 μg/m^2
same,maximum tolerated dose,[7]; once per week for 8 weeks,25 μg/m^2
same,"myalgia reported, of all treated patients",[7]; phase II clinical trials,10 to 87%
same,concentrations that activate PKC,[8],sub-nanomolar
